According to ChEMBL document CHEMBL5532682, “Recent advances of tryptanthrin and its derivatives as potential anticancer agents” (RSC Med Chem, 2024):
pIC50: −log10 of the molar value. Values belong to the molecule of their own block, whether it stands above or below them.

Assays:
[1] = system: NCI/ADR-RES; experiment: Antiproliferative activity against human MCF7ADR cells; type: functional, cell-based
[2] = system: MCF7; experiment: Antiproliferative activity against human MCF7 cells; type: functional, cell-based
[3] = system: K562; experiment: Antiproliferative activity against human K562 cells incubated by 48 hrs by MTT assay; type: functional, cell-based; conditions: K562, 48 h
[4] = Antiproliferative activity against mouse MC3T3-E1 cells; type: toxicity, cell-based
[5] = system: A549; experiment: Antiproliferative activity against human A549 cells incubated by 48 hrs by MTT assay; type: functional, cell-based; conditions: A549, 48 h
[6] = system: PC-3; experiment: Antiproliferative activity against human PC-3 cells incubated by 48 hrs by MTT assay; type: functional, cell-based; conditions: PC-3, 48 h
[7] = system: A549; experiment: Antiproliferative activity against human A549 cells; type: functional, cell-based
[8] = system: Hep 3B2; experiment: Anticancer activity against human Hep3B cells measured after 48 hrs; type: functional, cell-based
[9] = system: HepG2; experiment: Antiproliferative activity against human HepG2 cells incubated by 48 hrs by MTT assay; type: functional, cell-based; conditions: HepG2, 48 h
[10] = Antiproliferative activity against human HL7702 cells assessed as inhibition of cell growth; type: toxicity, cell-based; conditions: HL7702 (L02) cells
[11] = system: A549; experiment: Antiproliferative activity against human A549 cells assessed as cell growth inhibition; type: functional, cell-based
[12] = system: T-24; experiment: Antiproliferative activity against human T24 cells assessed as inhibition of cell growth; type: functional, cell-based
[13] = system: MCF7; experiment: Cytotoxicity against human MCF7 cells measured after 3 days by MTT assay; type: functional, cell-based; conditions: MCF7, 72 h
[14] = system: SK-OV-3; experiment: Antiproliferative activity against human SK-OV-3 cells assessed as inhibition of cell growth; type: functional, cell-based
[15] = system: Hep 3B2; experiment: Antiproliferative activity against human Hep3B cells measured after 48 hrs by MTT assay; type: functional, cell-based
[16] = system: A498; experiment: Cytotoxicity against human A498 cells measured after 3 days by MTT assay; type: functional, cell-based; conditions: A498, 72 h
[17] = system: HepG2; experiment: Antiproliferative activity against human HepG2 cells assessed as inhibition of cell growth; type: functional, cell-based
[18] = system: HeLa; experiment: Antiproliferative activity against human HeLa cells assessed as cell growth inhibition; type: functional, cell-based
[19] = system: SK-OV-3; experiment: Cytotoxicity against human SK-OV-3 cells measured after 3 days by MTT assay; type: functional, cell-based; conditions: SK-OV-3, 72 h
[20] = Antiproliferative activity against human HL7702 cells assessed as inhibition of cell viability; type: toxicity, cell-based; conditions: HL7702 (L02) cells
[21] = system: A549; experiment: Antiproliferative activity against human A549 cells assessed as inhibition of cell viability; type: functional, cell-based
[22] = system: A549/CDDP; experiment: Antiproliferative activity against human A549/DDP cells assessed as inhibition of cell viability; type: functional, cell-based
[23] = system: SW-620; experiment: Growth inhibition of human SW620 cells assessed as reduction in cell viability; type: functional
[24] = system: DU-145; experiment: Growth inhibition of human DU-145 cells assessed as reduction in cell viability; type: functional
[25] = system: SK-OV-3; experiment: Growth inhibition of human SK-OV-3 cells assessed as reduction in cell viability; type: functional
[26] = system: M14; experiment: Growth inhibition of human M14 cells assessed as reduction in cell viability; type: functional
[27] = system: A498; experiment: Growth inhibition of human A498 cells assessed as reduction in cell viability; type: functional
[28] = system: U-251; experiment: Growth inhibition of human U-251 cells assessed as reduction in cell viability; type: functional
[29] = system: NCI/ADR-RES; experiment: Growth inhibition of human MCF7ADR cells assessed as reduction in cell viability; type: functional
[30] = system: NCI-H522; experiment: Growth inhibition of human NCI-H522 cells assessed as reduction in cell viability; type: functional
[31] = system: HeLa; experiment: Antiproliferative activity against human HeLa cells; type: functional, cell-based
[32] = system: B16-F10; experiment: Antiproliferative activity against mouse B16-F10 cells; type: functional, cell-based
[33] = Antiproliferative activity against human LX-2 cells; type: toxicity, cell-based
[34] = system: K562; experiment: Antiproliferative activity against human K562 cells incubated for 48 hrs; type: functional, cell-based; conditions: K562, 48 h
[35] = system: CT26; experiment: Antiproliferative activity against mouse CT26 cells incubated for 48 hrs; type: functional, cell-based; conditions: CT26, 48 h
[36] = system: HeLa; experiment: Antiproliferative activity against human HeLa cells incubated for 48 hrs; type: functional, cell-based
[37] = system: MCF7; experiment: Antiproliferative activity against human MCF7 cells assessed as inhibition of cell growth; type: functional, cell-based
[38] = Cytotoxicity against human HEK293 cells assessed as inhibition of cell growth; type: toxicity, cell-based
[39] = system: HeLa; experiment: Antiproliferative activity against human HeLa cells assessed as inhibition of cell growth; type: functional, cell-based
[40] = system: A549; experiment: Antiproliferative activity against human A549 cells assessed as inhibition of cell growth; type: functional, cell-based
[41] = system: PANC-1; experiment: Antiproliferative activity against human PANC-1 cells; type: functional, cell-based
[42] = system: MDA-MB-231; experiment: Antiproliferative activity against human MDA-MB-231 cells; type: functional, cell-based
[43] = system: HT-29; experiment: Antiproliferative activity against human HT-29 cells; type: functional, cell-based
[44] = Cytotoxicity activity against human HDF cells; type: toxicity, cell-based; conditions: HDF cells (NHDF)

SMILES: O=C1c2cc(F)ccc2-n2c1nc1ccccc1c2=O
pIC50 [3]: 5.58 | pIC50 [4]: 4.01 | pIC50 [5]: 5.63 | pIC50 [6]: 4.98 | pIC50 [7]: 4.96 | pIC50 [8]: 5.39 | pIC50 [9]: 5.71

SMILES: O=C1c2cc(I)ccc2-n2c1nc1ccccc1c2=O
pIC50 [10]: 4.03 | pIC50 [11]: < 3.82 | pIC50 [12]: 4.07 | pIC50 [13]: 5.82 | pIC50 [14]: 4.10 | pIC50 [15]: 5.62 | pIC50 [16]: 5.73 | pIC50 [17]: 4.05 | pIC50 [18]: < 3.82 | pIC50 [19]: 6.19

SMILES: O=C1c2cc(Cl)ccc2-n2c1nc1ccccc1c2=O
pIC50 [3]: 5.44 | pIC50 [4]: < 4.00 | pIC50 [5]: 5.38 | pIC50 [6]: 5.07 | pIC50 [15]: 5.43 | pIC50 [7]: 4.65 | pIC50 [9]: 5.53

SMILES: N/N=C1/c2cc(F)ccc2-n2c1nc1ccccc1c2=O
pIC50 [13]: 5.85 | pIC50 [16]: 5.90 | pIC50 [19]: 5.07

SMILES: C=C[C@]1(O)c2ccccc2-n2c1nc1ccccc1c2=O
GI50 [23]: 10 µM | GI50 [24]: 10 µM | GI50 [25]: 6 µM | GI50 [26]: 8 µM | GI50 [29]: 20 µM

SMILES: C=C[C@@H]1[C@@]2(c3ccccc3)[C@H]3CCCN3[C@@]3(c4ccccc4-n4c3nc3ccccc3c4=O)[C@@]12c1ccccc1
pIC50 [34]: < 4.30 | pIC50 [35]: 5.00 | pIC50 [36]: < 4.30

SMILES: Cc1nn(Cl)c2c1[C@@]1(C(C#N)=CO2)c2cc(-c3cccc(Cl)c3)ccc2-n2c1nc1ccccc1c2=O
pIC50 [41]: 4.22 | pIC50 [42]: 4.03 | pIC50 [43]: < 4.00 | pIC50 [44]: < 4.00

SMILES: Cc1nn(Br)c2c1[C@@]1(C(C#N)=CO2)c2cc(-c3ccccc3)ccc2-n2c1nc1ccccc1c2=O
pIC50 [41]: 4.07 | pIC50 [42]: 4.18 | pIC50 [43]: < 4.00 | pIC50 [44]: < 4.00

SMILES: Cc1nn(Cl)c2c1[C@@]1(C(C#N)=C(N)O2)c2cc(-c3ccccc3)ccc2-n2c1nc1ccccc1c2=O
pIC50 [41]: < 4.00 | pIC50 [42]: 4.20 | pIC50 [43]: < 4.00 | pIC50 [44]: < 4.00

Second part, led by results:

pIC50 [2]: 4.09
SMILES: O=c1c2ccccc2nc2n1-c1ccccc1/C2=N\O
pIC50 [1]: 4.12

pIC50 [21]: < 4.00 | pIC50 [22]: < 4.00
SMILES: c1ccc(CNCc2ccccn2)nc1
pIC50 [20]: < 4.00

GI50 [23]: 8 µM | GI50 [24]: 50 µM | GI50 [25]: 30 µM | GI50 [28]: 15 µM | GI50 [30]: 50 µM
SMILES: O=C1c2cc3ccccc3cc2-n2c1nc1ccccc1c2=O
GI50 [26]: 40 µM | GI50 [27]: 60 µM | GI50 [29]: 15 µM

GI50 [24]: 2 µM
SMILES: O=c1c2ccccc2nc2n1-c1ccccc1/C2=N\OCCN1CCCC1

pIC50 [3]: 5.17 | pIC50 [5]: 5.63 | pIC50 [6]: 5.01 | pIC50 [8]: < 4.70 | pIC50 [9]: 5.25
SMILES: O=C1c2ccccc2-n2c1nc1ccc(F)cc1c2=O

pIC50 [8]: 5.19
SMILES: Cc1ccc2c(c1)C(=O)c1nc3ccccc3c(=O)n1-2

pIC50 [31]: 6.47 | pIC50 [3]: 5.09 | pIC50 [32]: 6.31 | GI50 [23]: 4 µM | GI50 [24]: 0.15 µM | GI50 [25]: 5 µM | pIC50 [5]: 5.16 | pIC50 [6]: 4.93 | GI50 [28]: > 100 µM | pIC50 [8]: 5.85 | GI50 [30]: 0.7 µM | pIC50 [9]: 5.10
SMILES: O=C1c2cc([N+](=O)[O-])ccc2-n2c1nc1ccccc1c2=O
pIC50 [33]: 6.08 | GI50 [26]: 0.8 µM | GI50 [27]: 3 µM | GI50 [29]: 0.7 µM

GI50 [23]: > 100 µM | GI50 [24]: > 100 µM | GI50 [25]: > 100 µM | GI50 [28]: > 100 µM | GI50 [30]: > 100 µM
SMILES: C[C@]1(O)c2ccccc2-n2c1nc1ccccc1c2=O
GI50 [26]: > 100 µM | GI50 [27]: > 100 µM | GI50 [29]: > 100 µM

pIC50 [37]: 4.90 | pIC50 [39]: 4.71 | pIC50 [40]: 4.77
SMILES: O=C1C2C=CC=CC2=NC2/C(=N\Nc3nc(-c4ccc(Br)cc4)cs3)c3ccccc3N12 (stereo unspecified)
pIC50 [38]: 4.14

pIC50 [8]: 5.24
SMILES: O=C1c2cc(Br)ccc2-n2c1nc1ccc(F)cc1c2=O
